Reference: patent publication US12681015B2, “Methods for predicting patient response to DMARDs” (Queen Mary University of London, priority 2019, dated 2026)

Experiments:
[1] = known side effect; cited from earlier work
[2] = test system: MTX-induced upregulation of SPM in human peripheral blood; assay: Human whole blood incubated with L002 or SB202190, then MTX; plasma SPM by LC-MS/MS; assay type: cell-based; conditions: L002 2 μM or SB202190 5 μM, then MTX 100 nM, 37° C., 45 min
Text: (§1) Plasma was collected by centrifugation and SPM were identified and quantified using LC-MS/MS based lipid mediator profiling (see methods for details). (A) sPLS-DA score plot of identified lipid mediator concentrations (B) Contribution for the top 10 differentially regulated mediators in principle component 1. Results are representative of n=6 volunteers per group with experiments conducted on two distinct occasions. (C-G) Inflammatory arthritis was initiated in mice by the administration of arthritogenic serum on days 0 and 2. […] Disease severity was assessed by measuring (C) disease activity using a 26-point clinical score, (D) joint histology using hematoxylin and eosin staining of knee sections collected 8 days post disease initiation, original magnification=×4 and (E) body weight. (F,G) Eight days post disease initiation joints were collected, (F) leukocytes were liberated from the paws and the number of neutrophils infiltrated into the paw was determined using flow cytometry and fluorescently labelled antibodies. (G) Lipid mediators were extracted and the concentrations of LTB4 were determined using liquid chromatography tandem-mass spectrometry. C, E, F are mean±SEM and G are percentage of vehicle of n=4 mice per group and experiments were conducted on two distinct occasions. Results for D are representative of n=8 mice per group. * p<0.05 vs Vehicle group for C and E using two-way ANOVA, for F one-way ANOVA, for G using one-sample t test. F=femur; m=meniscus; PF=pannus formation; T=tibia.
Plasma was obtained from peripheral blood of healthy volunteers, patients and mouse following centrifugation at 1500×g for 10 min at room temperature. Paws were collected and immediately transferred to liquid nitrogen prior to homogenization in 1 ml ice cold MeOH and homogenized using a glass dounce. All samples for LC-MS/MS-based profiling were extracted using solid-phase extraction columns as in Walker, M. E., Souza, P. R., Colas, R. A. & Dalli, J. “13-Series resolvins mediate the leukocyte-platelet actions of atorvastatin and pravastatin in inflammatory arthritis.” FASEB J 31, 3636-3648 (2017), the contents of which are incorporated herein by reference. Prior to sample extraction, deuterated internal standards, representing each region in the chromatographic analysis (500 pg each) were added to facilitate quantification. Samples were kept at −20° C. for a minimum of 45 min to allow protein precipitation. Supernatants were subjected to solid phase extraction, methyl formate fraction collected, brought to dryness and suspended in phase (methanol/water, 1:1, vol/vol) for injection on a Shimadzu LC-20AD HPLC and a Shimadzu SIL-20AC autoinjector, paired with a QTrap 5500 or QTrap 6500 plus (Sciex). […]

[3] = test system: inflammatory arthritis in mice; assay: Inflammatory arthritis in mice treated with MTX plus L002 or MTX plus SB202190; assay type: in vivo; conditions: for anti-arthritic actions of MTX: MTX 25 mg/kg plus inhibitor 20 mg/kg i.p. days 3, 5 and 7; for weight loss, a marker of disease activity / joint inflammation / joint concentrations of LTB4 / joint damage / ability of MTX to regulate neutrophil trafficking to the inflamed joint: MTX plus inhibitor 20 mg/kg; for joint inflammation: 26-point clinical score; for joint concentrations of LTB4: day 8, LC-MS/MS; for joint damage: knee histology, day 8; for ability of MTX to regulate neutrophil trafficking to the inflamed joint: paws, day 8, flow cytometry
Text: as §1
Plasma was obtained from peripheral blood of healthy volunteers, patients and mouse following centrifugation at 1500×g for 10 min at room temperature. Paws were collected and immediately transferred to liquid nitrogen prior to homogenization in 1 ml ice cold MeOH and homogenized using a glass dounce. All samples for LC-MS/MS-based profiling were extracted using solid-phase extraction columns as in Walker, M. E., Souza, P. R., Colas, R. A. & Dalli, J. “13-Series resolvins mediate the leukocyte-platelet actions of atorvastatin and pravastatin in inflammatory arthritis.” FASEB J 31, 3636-3648 (2017), the contents of which are incorporated herein by reference. Prior to sample extraction, deuterated internal standards, representing each region in the chromatographic analysis (500 pg each) were added to facilitate quantification. Samples were kept at −20° C. for a minimum of 45 min to allow protein precipitation. Supernatants were subjected to solid phase extraction, methyl formate fraction collected, brought to dryness and suspended in phase (methanol/water, 1:1, vol/vol) for injection on a Shimadzu LC-20AD HPLC and a Shimadzu SIL-20AC autoinjector, paired with a QTrap 5500 or QTrap 6500 plus (Sciex). An Agilent Poroshell 120 EC-C18 column (100 mm×4.6 mm×2.7 μm) was kept at 50° C. and mediators eluted using a mobile phase consisting of methanol/water/acetic acid of 20:80:0.01 (vol/vol/vol) that was ramped to 50:50:0.01 (vol/vol/vol) over 0.5 min and then to 80:20:0.01 (vol/vol/vol) from 2 min to 11 min, maintained till 14.5 min and then rapidly ramped to 98:2:0.01 (vol/vol/vol) for the next 0.1 min. This was subsequently maintained at 98:2:0.01 (vol/vol/vol) for 5.4 min, and the flow rate was maintained at 0.5 ml/min. QTrap 5500 or QTrap 6500 plus were operated using a multiple reaction monitoring method as in Walker, M. E., Souza, P. R., Colas, R. A. & Dalli, J. “13-Series resolvins mediate the leukocyte-platelet actions of atorvastatin and pravastatin in inflammatory arthritis.” FASEB J 31, 3636-3648 (2017), the contents of which are incorporated herein by reference. […]

In the case of `Cc1oncc1C(=O)Nc1ccc(C(F)(F)F)cc1` [Leflunomide], the “High blood pressure, share of people” value [1] is given as “up to 10% of people”.

With `Oc1ccc(-c2nc(-c3ccncc3)c(-c3ccc(F)cc3)[nH]2)cc1` [SB202190] the “MTX-induced upregulation of SPM” value [2] was “blocking”, the “concentrations of several mediators including PD1, MaR2n-3 DPA and RvD1” value [2] was “decreasing” and the “anti-arthritic actions of MTX” value [3] was “reversed”. For the same molecule, the “weight loss, a marker of disease activity” value [3] was “increase”, the joint inflammation [3] was “increase” and the “joint concentrations of LTB4” value [3] was “increase”. The joint damage [3] was “increase” and the “ability of MTX to regulate neutrophil trafficking to the inflamed joint” value [3] was “reversed”.

With `COc1ccc(S(=O)(=O)ON=C2C=C(C)C(=O)C(C)=C2)cc1` [L002] the “MTX-induced upregulation of SPM” value [2] was “blocking”, the “concentrations of several mediators including PD1, MaR2n-3 DPA and RvD1” value [2] was “decreasing” and the “anti-arthritic actions of MTX” value [3] was “reversed”. For the same molecule, the “weight loss, a marker of disease activity” value [3] was “increase”, the joint inflammation [3] was “increase” and the “joint concentrations of LTB4” value [3] was “increase”. For the same molecule, the joint damage [3] was “increase” and the “ability of MTX to regulate neutrophil trafficking to the inflamed joint” value [3] was “reversed”.
